For 20 compounds, EC50, IC50 and inhibition results are on record in US12441704B2, “Compounds active towards nuclear receptors” (NUEVOLUTION A/S, priority 2019, dated 2025).

Where two headings read alike, the source gives them in different places.

Experiment [1] has as its target T1, RORγ ligand-binding domain fused to Gal4 (Homo sapiens, UniProt P51449).
T1 construct: Gal4 (galactose-responsive transcription factor); expressed in transfected cells; host or cells: HEK293
T1 sequence (P51449 269-508 limits assumed): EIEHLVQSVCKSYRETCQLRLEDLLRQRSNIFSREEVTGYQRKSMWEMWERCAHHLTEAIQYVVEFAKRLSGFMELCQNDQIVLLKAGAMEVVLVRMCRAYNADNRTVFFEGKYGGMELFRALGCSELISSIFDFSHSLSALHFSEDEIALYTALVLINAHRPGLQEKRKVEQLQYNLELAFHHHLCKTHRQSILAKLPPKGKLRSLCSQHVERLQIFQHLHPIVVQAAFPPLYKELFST
The experiment is described as follows: RORγ Reporter Assay (Gal4). It is filed as cell-based. The method in brief: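 HEK293 cells transiently co-transfected with the Gal4-fused RORγ LBD and a UAS-luciferase reporter were exposed to compounds for 24 h at 37 °C (0.1% DMSO final). Luminescence was read, and percent reduction of RORγ activity was calculated relative to vehicle-average RLU.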
On the technique in general: A reporter such as luciferase makes a cellular process visible.

Experiment [2] concerns IL-17A secretion in activated PBMCs. The experiment is described as follows: IL-17A secretion in activated PBMCs. It is filed as cell-based, human. To be noted: for IC50: human PBMCs stimulated with CD3/CD28 Dynabeads for 48 h, absolute IC50. On the procedure: Heparin-treated whole blood from healthy human volunteers was supplied from Hospital de Sant Pau (Barcelona) under the approval of the local ethical review board for human studies (Hospital de Sant Pau, Barcelona, Spain). Human peripheral blood mononuclear cells (PBMCs) were isolated from healthy human volunteers by density gradient centrifugation using the Ficoll-Paque (GE Healthcare). […] Cells were seeded in 384-well plate (DiscoverX), at 40,000 cells per well and cultured 2 h at 37° C. and 5% CO2.
Dose-response curves with compounds were prepared using a 5-fold serial dilution (10 concentrations) in 100% DMSO and further diluted 100-fold in culture medium. Compound solutions (5 μL) were added to the plate containing cells (final DMSO concentration of 0.1%) and incubated for 30 min. Then, cells were stimulated with CD3/CD28 Dynabeads (ThermoFisher, at a bead-to-cell ratio of 1:1) for 48 h at 37° C. and 5% CO2.
IL-17A levels in supernatant were determined by immunoassay using hIL17A QBeads (Intellicyt) and by fluorescence analysis in iQue flow cytometer following the manufacturer's instructions. Inhibition of IL-17A secretion was calculated using the following formula: inhibition=100*[1−[(x−mean basal condition)/(mean top condition−mean basal condition)]]. Activated DMSO-treated cells were used as top condition and activated GNE09461 (10 μM)-treated cells as basal condition.

Where [3] appears, read: HEK293 cells co-transfected with RORγ LBD-Gal4 and luciferase reporter, 24 h incubation, absolute EC50, read-out: EC50.

Broadly, the EC50 is the midpoint of the concentration-response curve. In general, IC50 refers to the concentration that inhibits the measured activity by half. Low readings indicate greater potency, high ones weaker potency. With `Cn1cc(-c2ccc(CN(c3ncnc(NC[C@@H]4CCN(CC(N)=O)C[C@H]4O)c3F)C3CC3)c(F)c2)cn1` (racemic) [Example A7-75, rac-2-((3R,4R)-4-(((6-(cyclopropyl(2-fluoro-4-(1-methyl-1H-pyrazol-4-yl)benzyl)amino)-5-fluoropyrimidin-4-yl)amino)methyl)-3-hydroxypiperidin-1-yl)acetamide], the concentration giving a half-maximal response (EC50) in experiment [1] (setting [3]) came out at 13 nM. In addition, the IC50 in experiment [2] (Homo sapiens, PBMC, 48 h) came to 18 nM.
For the compound `NC(=O)CN1CCC(CNc2ncnc(N(Cc3ccc(C(F)(F)F)cc3)C3CC3)c2F)(c2cnn[nH]2)CC1` [Example A7-85, 2-(4-(((6-(Cyclopropyl(4-(trifluoromethyl)benzyl)amino)-5-fluoropyrimidin-4-yl)amino)methyl)-4-(1H-1,2,3-triazol-5-yl)piperidin-1-yl)acetamide], in experiment [1] (setting [3]), the EC50 was found to be 7.9 nM. This compound registered a concentration for half-maximal inhibition (IC50) in experiment [2] (Homo sapiens, PBMC, 48 h) of 120 nM.
On the same counts, the results for `CCN(Cc1ccc(C(O)(C(F)(F)F)C(F)(F)F)cc1)c1ncnc(NC[C@]2(O)CCN(CC(N)=O)C[C@H]2O)c1F` (relative stereo) [Example D5-04, rel-2-((3R,4R)-4-(((6-(ethyl(4-(1,1,1,3,3,3-hexafluoro-2-hydroxypropan-2-yl)benzyl)amino)-5-fluoropyrimidin-4-yl)amino)methyl)-3,4-dihydroxypiperidin-1-yl)acetamide] are 5.5 nM and 1 nM.
Broadly, the inhibition is the drop in the measured response relative to a control, in per cent. Lower therefore signals little suppression. `CCN(Cc1ccc(C#N)cc1)c1ncnc(NC[C@@H]2CCN(CC(N)=O)C[C@H]2O)c1F` (racemic) [Example A7-78, rac-2-((3R,4R)-4-(((6-((4-cyanobenzyl)(ethyl)amino)-5-fluoropyrimidin-4-yl)amino)methyl)-3-hydroxypiperidin-1-yl)acetamide]: the EC50 in experiment [1] (setting [3]) was determined as 65 nM. This compound also showed an inhibition at 10 µM in experiment [2] (PBMC, @10 uM, human PBMCs stimulated with CD3/CD28 Dynabeads) of 70%.
For `NC(=O)CN1CC[C@H](CNc2ncnc(N(Cc3ccc(C(F)(F)F)cc3)C3CC3)c2F)[C@@H](O)C1` (stereo in doubt) [Example A7-01-2, rel-2-((3R,4R)-4-(((6-(Cyclopropyl(4-(trifluoromethyl)benzyl)amino)-5-fluoropyrimidin-4-yl)amino)methyl)-3-hydroxypiperidin-1-yl)acetamide], in experiment [1] (setting [3]), the EC50 came to 1.5 nM. Half-maximal inhibition in experiment [2] (Homo sapiens, PBMC, 48 h) (IC50) required 2.7 nM.
The compound `Cn1cc(-c2ccc(CN(c3ncnc(NC[C@]4(O)CCN(CC(N)=O)C[C@H]4O)c3F)C3CC3)c(F)c2)cn1` (single isomer, unassigned) [Example D5-05-1] yielded an IC50 in experiment [2] of 23 nM.
`NC(=O)CN1CC[C@@H](CNc2ncnc(N(Cc3ccc(-n4cccn4)cc3)C3CC3)c2F)[C@H](O)C1` (racemic) [Example A7-86, rac-2-((3R,4R)-4-(((6-((4-(1H-pyrazol-1-yl)benzyl)(cyclopropyl)amino)-5-fluoropyrimidin-4-yl)amino)methyl)-3-hydroxypiperidin-1-yl)acetamide]: in experiment [2] (Homo sapiens, PBMC, 48 h), the IC50 turned out to be 55 nM.
Consider `NC(=O)CN1CC[C@@H](CNc2ncnc(N(Cc3ccc(C(F)(F)F)cc3)C3CC3)c2F)[C@H](O)C1` (stereo in doubt) [Example A7-01, rac-2-((3R,4R)-4-(((6-(Cyclopropyl(4-(trifluoromethyl)benzyl)amino)-5-fluoropyrimidin-4-yl)amino)methyl)-3-hydroxypiperidin-1-yl)acetamide], for which, in experiment [2] (Homo sapiens, PBMC, 48 h), it took 8.7 nM to reach half-maximal inhibition (IC50).
On the same count and under the same terms, then `CCN(Cc1ccc(C(F)(F)F)cc1)c1ncnc(NC[C@@H]2CCN(C(C)(C)C(N)=O)C[C@H]2O)c1F` (relative stereo) [Example A7-57, rel-2-((3R,4R)-4-(((6-(ethyl(4-(trifluoromethyl)benzyl)amino)-5-fluoropyrimidin-4-yl)amino)methyl)-3-hydroxypiperidin-1-yl)-2-methylpropanamide], with 39 nM.
In the case of `NC(=O)CN1CCC(CO)(CNc2ncnc(N(Cc3ccc(C(F)(F)F)cc3)C3CC3)c2F)C(O)C1` (single isomer, unassigned) [Example C4-1-2, 2-(4-(((6-(Cyclopropyl(4-(trifluoromethyl)benzyl)amino)-5-fluoropyrimidin-4-yl)amino)methyl)-3-hydroxy-4-(hydroxymethyl)piperidin-1-yl)acetamide], in experiment [1] (compounds of the present disclosure, source: Table 2 herein, read-out: Gal4 assay EC50), the concentration for a half-maximal effect (EC50) is less than 100 nM.
`NC(=O)CN1CC[C@@H](CNc2ncnc(N(Cc3ccc(C(F)F)nc3)C3CC3)c2F)[C@H](O)C1` (single isomer, unassigned) [Example A7-25-1]: the half-maximal effective concentration (EC50) in experiment [1] (setting [3]) was found to be 630 nM.
In the case of `N#Cc1cccc(CN(c2ncnc(NCC3CCN(CC(N)=O)CC3)c2F)C2CC2)c1` [Example A7-36, 2-(4-(((6-((3-cyanobenzyl)(cyclopropyl)amino)-5-fluoropyrimidin-4-yl)amino)methyl)piperidin-1-yl)acetamide], the EC50 in experiment [1] (setting [3]) was determined as 860 nM.
As for `CN(Cc1ccc(C(F)(F)F)cc1)c1ncnc(NC[C@H]2CCN(CC(N)=O)C[C@@H]2O)c1F` (single isomer, unassigned) [Example A7-20-2], the EC50 in experiment [1] (setting [3]) came to 32 nM.
As to `NC(=O)CN1CC[C@@H](CNc2ncnc(N(Cc3ccc(C(F)(F)F)cc3)C3CCC3)c2F)[C@H](O)C1` (stereo in doubt) [Example A7-16, rac-2-((3R,4R)-4-(((6-(cyclobutyl(4-(trifluoromethyl)benzyl)amino)-5-fluoropyrimidin-4-yl)amino)methyl)-3-hydroxypiperidin-1-yl)acetamide], in experiment [1] (setting [3]), the EC50 worked out at 19 nM.
`NC(=O)CN1CC[C@H](CNc2ncnc(N(Cc3ccc(C(F)F)nc3)C3CC3)c2F)[C@@H](O)C1` (stereo in doubt) [Example A7-25-2, rel-2-((3R,4R)-4-(((6-(cyclopropyl((6-(difluoromethyl)pyridin-3-yl)methyl)amino)-5-fluoropyrimidin-4-yl)amino)methyl)-3-hydroxypiperidin-1-yl)acetamide]: the concentration for a half-maximal effect (EC50) in experiment [1] (setting [3]) is 320 nM.
`CN(Cc1ccc(C(F)(F)F)cc1)c1ncnc(NC[C@H]2CCN(CC(N)=O)C[C@@H]2O)c1F` (single isomer, unassigned) [Example A7-20-1]: the 50% effective concentration (EC50) in experiment [1] (setting [3]) was determined as 35 nM.
In experiment [2] (Homo sapiens, PBMC, 48 h), `[2H]C([2H])([2H])N(Cc1ccc(C(F)(F)F)cc1)c1ncnc(NC[C@@H]2CCN(CC(N)=O)C[C@H]2O)c1F` (racemic) [Example A7-60, rac-2-((3R,4R)-4-(((5-fluoro-6-((methyl-d3)(4-(trifluoromethyl)benzyl)amino)pyrimidin-4-yl)amino)methyl)-3-hydroxypiperidin-1-yl)acetamide] came in with an IC50 of 87 nM.
`Cn1c(=O)oc2cc(CN(c3ncnc(NCC4(F)CCN(CC(N)=O)CC4)c3F)C3CC3)ccc21` [Example A7-13]: the 50% effective concentration (EC50) in experiment [1] (setting [3]) is 230 nM.
For the compound `NC(=O)CN1CCC(CNc2ncnc(N(Cc3ccc(C(F)(F)F)cc3)C3CC3)c2F)(c2ncc[nH]2)CC1` [Example A7-84, 2-(4-(((6-(Cyclopropyl(4-(trifluoromethyl)benzyl)amino)-5-fluoropyrimidin-4-yl)amino)methyl)-4-(1H-imidazol-2-yl)piperidin-1-yl)acetamide], the concentration for a half-maximal effect (EC50) in experiment [1] (setting [3]) stood at 301 nM.
Take `CCN(Cc1ccc(C(F)(F)F)cc1)c1ncnc(NC[C@H]2CCN(CC(N)=O)C[C@@H]2O)c1F` (single isomer, unassigned) [Example A7-21-1]: the EC50 in experiment [1] (setting [3]) came out at 9.3 nM.
